Assay results taken from PubChem BioAssay (NCI).
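Protocol summary: plate cells (96-well), add compound at 5 concentrations, incubate 48 h, interpolate endpoints linearly. TGI denotes the concentration required for complete inhibition of growth.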

How the values were obtained:
Experiment in all cases: inhibition of tumour cell growth, NCI panel, 48 h
[1] = tested on: RPMI-8226 leukemia
[2] = tested on: A498 renal
[3] = tested on: SNB-75 CNS
[4] = tested on: COLO 205 colon
[5] = tested on: BT-549 breast
[6] = tested on: A549 NSCLC
[7] = tested on: HT29 colon
[8] = tested on: HOP-62 NSCLC
[9] = tested on: UACC-62 melanoma
[10] = tested on: OVCAR-4 ovarian
[11] = tested on: SW-620 colon
[12] = tested on: HS 578T breast
[13] = tested on: HCT-15 colon
[14] = tested on: 786-0 renal
[15] = tested on: CAKI-1 renal
[16] = tested on: HL-60(TB) leukemia
[17] = tested on: SK-MEL-5 melanoma
[18] = tested on: SR leukemia
[19] = tested on: HOP-92 NSCLC
[20] = tested on: NCI-H23 lung
[21] = tested on: U251 CNS
[22] = tested on: NCI-H226 lung
[23] = tested on: IGROV1 ovarian
[24] = tested on: SK-MEL-28 melanoma
[25] = tested on: DU-145 prostate
[26] = tested on: KM12 colon
[27] = tested on: MOLT-4 leukemia
[28] = tested on: MDA-MB-231 breast
[29] = tested on: SF-295 CNS
[30] = tested on: K-562 leukemia
[31] = tested on: SNB-19 CNS
[32] = tested on: OVCAR-3 ovarian
[33] = tested on: OVCAR-5 ovarian
[34] = tested on: TK-10 renal
[35] = tested on: UACC-257 melanoma
[36] = tested on: EKVX NSCLC
[37] = tested on: MALME-3M melanoma
[38] = tested on: T-47D breast
[39] = tested on: RXF 393 renal
[40] = tested on: LOX IMVI melanoma
[41] = tested on: PC-3 prostate
[42] = tested on: SF-268 CNS
[43] = tested on: ACHN renal
[44] = tested on: NCI-H460 lung
[45] = tested on: HCT-116 colon
[46] = tested on: CCRF-CEM leukemia
[47] = tested on: SK-MEL-2 melanoma
[48] = tested on: SF-539 CNS
[49] = tested on: M14 melanoma
[50] = tested on: MCF7 breast
[51] = tested on: OVCAR-8 ovarian
[52] = tested on: MDA-N
[53] = tested on: HCC-2998 colon
[54] = tested on: SN12C renal
[55] = tested on: NCI/ADR-RES ovarian
[56] = tested on: SK-OV-3 ovarian
[57] = tested on: UO-31 renal
[58] = tested on: NCI-H522 lung
[59] = tested on: MDA-MB-435

O=C(Nc1sccc1S(=O)(=O)c1ccc(Cl)cc1)c1ccc(Cl)cc1
TGI [1]: > 100 µM
TGI [2]: > 100 µM
TGI [3]: > 100 µM
TGI [4]: > 100 µM
TGI [5]: > 100 µM
TGI [6]: > 100 µM
TGI [7]: > 100 µM
TGI [8]: > 100 µM
TGI [9]: > 100 µM
TGI [10]: > 100 µM
TGI [11]: > 100 µM
TGI [12]: > 100 µM
TGI [13]: > 100 µM
TGI [14]: > 100 µM
TGI [15]: > 100 µM
TGI [16]: > 100 µM
TGI [17]: > 100 µM
TGI [18]: > 100 µM
TGI [19]: > 100 µM
TGI [20]: > 100 µM
TGI [21]: > 100 µM
TGI [22]: > 100 µM
TGI [23]: > 100 µM
TGI [24]: > 100 µM
TGI [25]: > 100 µM
TGI [26]: > 100 µM
TGI [27]: > 100 µM
TGI [28]: > 100 µM
TGI [29]: > 100 µM
TGI [30]: > 100 µM
TGI [31]: > 100 µM
TGI [32]: > 100 µM
TGI [33]: > 100 µM
TGI [34]: > 100 µM
TGI [35]: > 100 µM
TGI [36]: > 100 µM
TGI [37]: > 100 µM
TGI [38]: > 100 µM
TGI [39]: > 100 µM
TGI [40]: > 100 µM
TGI [41]: 90.4 µM
TGI [42]: > 100 µM
TGI [43]: > 100 µM
TGI [44]: > 100 µM
TGI [45]: > 100 µM
TGI [46]: > 100 µM
TGI [47]: > 100 µM
TGI [48]: > 100 µM
TGI [49]: > 100 µM
TGI [50]: > 100 µM
TGI [51]: > 100 µM
TGI [52]: > 100 µM
TGI [53]: > 100 µM
TGI [54]: > 100 µM
TGI [55]: > 100 µM
TGI [56]: > 100 µM
TGI [57]: > 100 µM
TGI [58]: > 100 µM
TGI [59]: > 100 µM

CC1(C)[C@@H]2CC[C@@]1(C)C1(SS1=O)C21Cc2ccccc2C1 (some centres not stated)
TGI [1]: 50.5 µM
TGI [2]: 97.3 µM
TGI [3]: > 100 µM
TGI [4]: 99 µM
TGI [5]: 85.9 µM
TGI [6]: > 100 µM
TGI [7]: 40.9 µM
TGI [8]: > 100 µM
TGI [9]: 70 µM
TGI [10]: 32 µM
TGI [11]: 36.1 µM
TGI [12]: > 100 µM
TGI [13]: 63.7 µM
TGI [14]: 31.3 µM
TGI [15]: 45.6 µM
TGI [16]: 42.5 µM
TGI [18]: 54.5 µM
TGI [19]: 67.5 µM
TGI [20]: > 100 µM
TGI [21]: 84.5 µM
TGI [22]: > 100 µM
TGI [23]: 37.2 µM
TGI [24]: 54 µM
TGI [25]: 45.4 µM
TGI [26]: > 100 µM
TGI [27]: 58.4 µM
TGI [28]: 34.9 µM
TGI [29]: > 100 µM
TGI [30]: 51.6 µM
TGI [31]: > 100 µM
TGI [32]: > 100 µM
TGI [33]: 45.7 µM
TGI [34]: 38.7 µM
TGI [35]: 55.9 µM
TGI [36]: 73 µM
TGI [37]: > 100 µM
TGI [38]: 70.3 µM
TGI [39]: 38.9 µM
TGI [40]: 28.5 µM
TGI [41]: 41.7 µM
TGI [42]: > 100 µM
TGI [43]: 45.5 µM
TGI [44]: 52.2 µM
TGI [45]: 28.5 µM
TGI [46]: 36.3 µM
TGI [47]: 60.5 µM
TGI [48]: 72.3 µM
TGI [49]: > 100 µM
TGI [50]: 63.9 µM
TGI [51]: 31 µM
TGI [52]: 35.5 µM
TGI [53]: 36.9 µM
TGI [54]: 35.8 µM
TGI [55]: 67.5 µM
TGI [56]: > 100 µM
TGI [57]: 35.8 µM
TGI [58]: 30.8 µM
TGI [59]: 99 µM
